The SangsterLogP compilation

assay: method code SF-AS, from DOI: 10.1016/s0006-291x(89)80063-4, PMID: 2916990; conditions: pH 7.5

Row | SMILES | logD
1 | Nc1nc(N)c2ncn([C@H]3C[C@H](O)[C@@H](CO)O3)c2n1 | -0.52
2 | [N-]=[N+]=N[C@H]1C[C@H](n2cnc3c(N)ncnc32)O[C@@H]1CO | 0.35
3 | O=c1[nH]c(=O)n([C@H]2CC[C@@H](CO)O2)cc1I | -0.61
4 | Nc1nc2c(ncn2[C@H]2C=C[C@@H](CO)O2)c(=O)[nH]1 | -1.21
5 | Nc1ncnc2c1ncn2[C@H]1C=C[C@@H](CO)O1 | -0.36
6 | [N-]=[N+]=N[C@H]1C[C@H](n2cnc3c(N)nc(N)nc32)O[C@@H]1CO | 0.24
7 | Nc1nc(N)c2ncn([C@H]3CC(F)[C@@H](CO)O3)c2n1 (stereo partly specified) | 0.05
8 | O=c1ccn([C@H]2C=C[C@@H](CO)O2)c(=O)[nH]1 | -1.07
9 | Nc1ncnc2c1ncn2[C@H]1C[C@H](F)[C@@H](CO)O1 | 0.08
10 | [N-]=[N+]=N[C@@H]1[C@H](N=[N+]=[N-])[C@@H](CO)O[C@H]1n1cnc2c(N)ncnc21 | 0.8
11 | O=c1ccn([C@H]2C[C@H](O)[C@@H](CO)O2)c(=O)[nH]1 | -1.51
12 | [N-]=[N+]=N[C@H]1C[C@H](n2cnc3c(=O)[nH]c(N)nc32)O[C@@H]1CO | -0.33
13 | O=c1[nH]c(=O)n([C@H]2C[C@H](F)[C@@H](CO)O2)cc1Cl | -0.17

Next, values leading:

Row | logD | SMILES
14 | -0.99 | O=c1[nH]c(=O)n([C@H]2CC[C@@H](CO)O2)cc1Br
15 | -0.89 | O=c1ccn(C2CCC(CO)O2)c(=O)[nH]1 (stereo unspecified)
16 | -1.01 | Nc1nc2c(ncn2[C@H]2CC[C@@H](CO)O2)c(=O)[nH]1
17 | -1.11 | O=c1[nH]c(=O)n([C@H]2CC[C@@H](CO)O2)cc1Cl
18 | -0.66 | Nc1nc2c(ncn2[C@H]2C[C@H](F)[C@@H](CO)O2)c(=O)[nH]1
19 | -0.04 | O=c1[nH]c(=O)n([C@H]2C[C@H](F)[C@@H](CO)O2)cc1Br
20 | -0.49 | O=c1ccn([C@H]2C[C@H](F)[C@@H](CO)O2)c(=O)[nH]1
21 | -0.64 | [N-]=[N+]=N[C@H]1C[C@H](n2ccc(N)nc2=O)O[C@@H]1CO
